Reference: CN108290841A, “具有荧光性的类视黄醇x受体结合性分子及其用途” (Okayama University NUC, priority 2015, dated 2017)

Experiments:
[1] = target: T1, RXRα protein (ligand binding domain (LBD)) [RXRα蛋白质(配体结合域(LBD))] (Homo sapiens, UniProt P19793); experiment: RXR binding of RXR ligands evaluated with compound 10 as fluorescent probe (Example 13); conditions: RXRα-LBD 100 nM, compound 10 100 nM; from EC50 by Cheng-Prusoff equation
T1 construct: 关于RXRα蛋白质(配体结合域(LBD)),将Active Motif社制的物质以100nM使用; purchased Active Motif
T1 sequence (P19793 227-458 limits assumed): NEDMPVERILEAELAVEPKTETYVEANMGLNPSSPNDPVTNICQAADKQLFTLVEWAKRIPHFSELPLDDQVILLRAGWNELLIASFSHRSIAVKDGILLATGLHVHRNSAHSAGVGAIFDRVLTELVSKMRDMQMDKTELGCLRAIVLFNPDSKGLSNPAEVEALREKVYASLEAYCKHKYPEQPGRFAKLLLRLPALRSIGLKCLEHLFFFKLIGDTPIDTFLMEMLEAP

[2] = test system: retinoid X receptor (RXR) [类视黄醇X受体]; experiment: Luciferase reporter gene assay for RXR transcriptional activation (Example 9); type: cell-based; conditions: COS-1 cells; for RXR agonist activity: relative to transcriptional activity with 1 μM bexarotene set to 1
[3] = target: T1, RXRα protein (ligand binding domain (LBD)) [RXRα蛋白质(配体结合域(LBD))]; experiment: Detection of RXR binding of RXR ligands with compound 44 (Example 15); conditions: test compound 1 μM, compound 44 30 nM, RXRα-LBD 100 nM
[4] = target: T2, full-length RXRα protein [全长RXRα蛋白质] (Homo sapiens, UniProt P19793); experiment: Combined assay: RXR activation by fluorescence polarization of fluorescein-PGC1a coactivator peptide (Example 16); type: biochemical; conditions: test compound 10 μM, full-length RXRα 3 μM, compound 10 3 μM, fluorescein-PGC1a 30 nM
T2 construct: 全长RXRα蛋白质使用3μM
T2 sequence (P19793 1-462): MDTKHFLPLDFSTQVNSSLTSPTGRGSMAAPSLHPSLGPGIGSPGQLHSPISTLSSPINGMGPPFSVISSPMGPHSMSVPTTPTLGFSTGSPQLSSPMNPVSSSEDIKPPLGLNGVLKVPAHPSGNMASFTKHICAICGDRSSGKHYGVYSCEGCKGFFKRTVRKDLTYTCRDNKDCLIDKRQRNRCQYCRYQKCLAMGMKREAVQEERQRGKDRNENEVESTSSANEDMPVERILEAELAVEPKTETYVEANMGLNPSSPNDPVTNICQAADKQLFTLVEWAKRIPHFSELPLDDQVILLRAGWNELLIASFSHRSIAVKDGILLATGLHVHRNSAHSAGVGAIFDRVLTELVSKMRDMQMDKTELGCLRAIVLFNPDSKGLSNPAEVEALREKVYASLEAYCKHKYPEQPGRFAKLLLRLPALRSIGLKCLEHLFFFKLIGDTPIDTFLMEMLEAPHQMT

[5] = Blood concentration after oral administration to mice (Example 17); type: in vivo; conditions: mouse (male ICR, 6 weeks)
NFκB = conditions: LPS 1 ng/mL, 24 h; relative to LPS without test compound as 100%

Work on Cc1cc2c(cc1-n1c(C(F)(F)F)nc3cc(C(=O)O)ccc31)C(C)(C)CCC2(C)C [CBTF-PMN] yielded a Ki [1] of 73 nM.
In the case of COc1cc2c(cc1-c1cc3cc(C(=O)O)c(=O)oc3cc1O)C(C)(C)CCC2(C)C [化合物23a], the RXR agonist activity [2] is reported as “确认到RXR激动剂活性”.
For CCCOc1cc2c(cc1-c1cc3cc(C(=O)O)c(=O)oc3cc1O)C(C)(C)CCC2(C)C [化合物23b], the RXR agonist activity [2] was “确认到RXR激动剂活性”.
In the case of CCCCCOc1cc2c(cc1-c1cc3cc(C(=O)O)c(=O)oc3cc1O)C(C)(C)CCC2(C)C [化合物23c], the RXR antagonist activity ([2]; in the presence of the RXR agonist NEt-TMN (printed for compound 44; others tested similarly)) is reported as “确认到RXR拮抗剂活性”.
For CCN(c1ccc(C(=O)O)cn1)c1cc(OCC(C)C)c(C(C)C)cc1/C=C/c1ccccc1 [NEt-SB], the “change of fluorescence intensity of compound 44 by test compound” value [3] was “荧光强度减少”.
With Cc1cc(OC(C)C)c(C(C)C)cc1-c1cc2cc(C(=O)O)c(=O)oc2cc1O [化合物30] the RXR agonist activity [2] was “确认到RXR激动剂活性”.
For CCCCCCOc1cc2c(cc1N(C)c1ncc(C(=O)O)cn1)C(C)(C)CCC2(C)C [PA452], the “fluorescence polarization of fluorescein-PGC1a” value [4] was “减少” and the Ki [1] was 108 nM.
For Cc1cc2c(cc1-c1cc3cc(C(=O)O)c(=O)oc3cc1O)C(C)(C)CCC2(C)C [化合物10], the concentration at 0.5 h ([5]; in vivo, 30 mg/kg oral, 0.5 h after administration) was roughly 3000 nM, the disappearance from blood ([5]; 30 mg/kg oral, 0.5, 1, 3 and 6 h) was “时间依赖性地从血液中消失” and the “SEAP activity / inhibitory activity on NFκB transcriptional activity” value (NFκB) was “抑制SEAP活性,显示对于NFκB的抑制活性”.
